In data set [1] the target is KOP (Homo sapiens, UniProt P41145). Nature of the data set: Inhibition of Forskolin-induced cAMP production in HEK-KOP cells (AlphaScreen, DP series). Type of data set: cell-based. Particulars: for IC80: approximate IC80, 'EC anything' protocol; for cAMP response, HEK-KOP: concentration-response curve, % cAMP. The procedure:
DP-7-11 and DP-7-12 were assessed for the ability to inhibit cAMP production in HEK-DOP and HEK KOP cells.
The HEK-293 DOP (HEK-DOP) and HEK-293 KOP (HEK-KOP) cell lines were cultured in a T75 flask, in Dulbeco's Modified Eagle's Medium (DMEM) complete with 10% (v/v) fetal bovine serum (FBS) and 1% (v/v) Geneticin. Cells were incubated in a humidified atmosphere of 37° C. (95% air and 5% CO2). Cells were passaged at 80-90% confluence and media was changed every two days.
Stimulation buffer and Lysis buffer were prepared fresh on the day of each assay. Stimulation buffer contained 19.5 mL Hanks buffered saline solution, Bovine serum albumin (BSA) 0.1% (w/v), 0.5 mM 3-Isobutyl-1-methylxanthine (IBMX) and 5 mM HEPES (4-(2-hydroxyethyl)-1-piperazineethanesulfonic acid). Lysis buffer contained 19 mL Mili-Q H2O, BSA 0.1% (w/v), 0.3% (v/v) 10% Tween-20, and 5 mM HEPES. Both buffers were adjusted to pH 7.4 with NaOH.
The cAMP standard dilution series was prepared from the 50 μM cAMP standard solution provided by the cAMP assay kit. The standard solution was vortexed before being serially diluted to provide a concentration range of 5×10^−6 M to 5×10^−11 M in ½ Log intervals.
For this assay, Forskolin was optimised at 50 μM/well. 25 mM stocks were used to prepare 0.2 mM Forskolin. The concentration of Forskolin prepared was 4 times the required concentration in the well to account for further dilution in the well. 0.1 mM Forskolin solution was then made from this and used to dilute the peptide solutions.
DP-7-11 and DP-7-12 provided in powder form and reconstituted to 10 mM stock solutions and diluted to 1 mM working stocks using Mili-Q H2O. Each peptide solution was serially diluted to give concentrations of 1×10^−6 to 3×10^−7 M with stimulation buffer.
Stimulation buffer was added to the 0.2 mM Forskolin solution in a 1:1 ratio to prepare the Forskolin only treatment solution. This was the positive control. Stimulation buffer was used as the negative control.
Cells were harvested from two T75 flasks on the day of experimentation. Identical protocol was used for both DOP and KOP cells. The cells were first removed from the incubator and washed with Versene®. The cells were then incubated in 2 mL of Versene® at 37° C. for 5 minutes. Following this, the mixture was made up to 5 mL with Versene® in a centrifuge tube. This was centrifuged at 1300 rpm for 2 minutes at 23° C. The supernatant was then decanted and the cells resuspended in 100 μL stimulation buffer for counting. A hemocytometer was used to count the cells. This assay required the concentration of cells to be 13300 cells/μL
This method was used to conduct all cAMP Alphascreen assays. The acceptor bead mixture consisted of acceptor beads and stimulation buffer mixed according to the ratio 1:35 given in the kit. From this, the acceptor beads mixture was used to prepare separate mixtures for the cAMP standard curve and for the treatment wells of the assay. For the treatment wells, the beads were mixed with cells in a 1:1 ratio. For the cAMP standard curve, the beads were mixed with more stimulation buffer in a 1:1 ratio. The donor bead mixture consisted of donor beads, biotinylated cAMP and lysis buffer mixed in the ratio 1:3:300.
The DP series compounds were assayed as follows: The assay was performed using a 96 well ½ area plate. The different cAMP standard solutions (3 μL/well) were plated in duplicate. The different concentrations of drug (3 μL/well), and control solutions (3 μL/well) were plated in triplicate. […]
(cAMP levels reflect the balance of adenylyl cyclase and phosphodiesterase activity.)

In data set [2] the target is T1, trypsin (Bos taurus, UniProt P00760).
T1 sequence (P00760 24-246): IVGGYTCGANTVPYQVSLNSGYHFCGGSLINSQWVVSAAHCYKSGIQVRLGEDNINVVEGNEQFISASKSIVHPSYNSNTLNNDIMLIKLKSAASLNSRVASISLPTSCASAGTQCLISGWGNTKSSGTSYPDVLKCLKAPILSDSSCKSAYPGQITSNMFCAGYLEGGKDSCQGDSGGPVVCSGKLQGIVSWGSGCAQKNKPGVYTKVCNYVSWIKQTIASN
Nature of the data set: Trypsin stability. Type of data set: in vitro ADME. The procedure:
Purified DP-7-11 (1 mg/mL) was dissolved in 0.1 M ammonium bicarbonate (NH4HCO3) buffer. To prepare a stock trypsin solution, 1 mg trypsin was dissolved in 50 mL of 0.1 M NH4HCO3 buffer. Equal volumes of the stock trypsin solution (62.5 μL) and DP-7-11 solution (62.5 μL) were incubated in 375 μL of 0.1M NH4HCO3 buffer in a 37° C. water bath. Aliquots of 100 μL were collected from this mixture at set time intervals of 0 min, up to 24 hours. Ice-cold acetonitrile containing 0.5% TFA was used to quench the reaction between DP-7-11 and trypsin at predetermined intervals, and just prior to HPLC or LC-MS analysis. The quenched samples were vortexed for 10 minutes followed by centrifugation at 12,000 rpm for a further 15 minutes. Supernatant was sampled and analysed using analytical RP-HPLC or LC-MS. Samples without trypsin acted as negative controls and were sampled at two intervals of 0 hour and 6 hours.
As used in this serum and trypsin stability discussion, the term ‘degraded completely’ relates to the relevant compound being completely absent when tested. In other words, the compound being tested is not observed when tested.
The serum and trypsin stability of DP-7-11 and DP-7-12 were tested (in some instances again) using LC-MS. The LC-MS utilized in this study was more sensitive than the LC-MS utilized in the above tests.

Structures are written as SMILES. *1 amine or outer side, *2 acyl side, *3 side chain or, on linkers, in order; H or OH if unused. Where a SMILES comes first, the peptide text is derived from it. Bridges are numbered along the chain shown (N, C = ends). [ ]: non-standard residue; d: D form. NHCH2CMe2S = CC(C)(CN[*:1])S[*:2]

KOP, sequence (P41145 whole entry): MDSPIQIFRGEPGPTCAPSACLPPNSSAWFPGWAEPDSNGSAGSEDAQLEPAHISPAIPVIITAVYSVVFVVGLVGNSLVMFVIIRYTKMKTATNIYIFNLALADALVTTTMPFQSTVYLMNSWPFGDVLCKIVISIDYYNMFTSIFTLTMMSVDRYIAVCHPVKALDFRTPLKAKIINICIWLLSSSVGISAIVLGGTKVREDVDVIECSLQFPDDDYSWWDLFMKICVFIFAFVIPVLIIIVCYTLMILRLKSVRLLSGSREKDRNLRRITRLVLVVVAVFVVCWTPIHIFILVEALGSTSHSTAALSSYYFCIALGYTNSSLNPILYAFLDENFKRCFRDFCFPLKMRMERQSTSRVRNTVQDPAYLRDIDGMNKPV

With `CC1(C)CNC(=O)C[C@@H](NC(=O)[C@@H](N)Cc2ccc(O)cc2)C(=O)NCC(=O)N[C@@H](Cc2ccccc2)C(=O)N[C@H](C(=O)N[C@@H](CCCNC(=N)N)C(=O)N[C@@H](CCCNC(=N)N)C(N)=O)CSS1` [DP-7-12, c(Tyr-D(Asp)-Gly-Phe-SSa-Arg-Arg)] (H-Y[dD]GFCRR-NH2; linker 2-5 via NHCH2CMe2S), in data set [1], the 80% effect level (IC80) was put at 28.8 nM and the “cAMP response, HEK-KOP” value is 25.88%. Besides, the “Trypsin: complete degradation within” value in data set [2] (37° C.) is recorded as “within 30 min”.
On to `CC1(C)CNC(=O)C[C@H](C(=O)N[C@@H](CCCNC(=N)N)C(=O)N[C@@H](CCCNC(=N)N)C(N)=O)NC(=O)[C@H](Cc2ccccc2)NC(=O)CNC(=O)[C@@H](NC(=O)[C@@H](N)Cc2ccc(O)cc2)CSS1` [DP-7-11, c(Tyr-SSa-Gly-Phe-D(Asp)-Arg-Arg)], for which it took 5.06 nM to reach half-maximal inhibition in data set [1] (Forskolin 50 μM/well, 95% CI in brackets) (IC50). Also, in data set [1], the IC80 (in general, the point of the concentration-response curve where the effect stands at 80%) came to 30 nM and the “cAMP response, HEK-KOP” value was determined as 13.73%. Moreover, in data set [2] (at 30 min, more sensitive LC-MS), the “Incubation in trypsin: peptide remaining” value was determined as 25% remaining at. Moreover, the fraction remaining (usually what is left of the initial amount, in per cent) at 0.5 h, 0.125 mg/mL in data set [2] (trypsin solution, at 30 min, more sensitive LC-MS, read-out: Incubation in trypsin: peptide remaining) was ~25%.

The record behind these values is US20220089646A1 (THE UNIVERSITY OF QUEENSLAND, priority 2019, published 2022).
